# In US20140120083A1, “TREATMENT OF CANCERS USING PI3 KINASE ISOFORM MODULATORS” (INFINITY PHARMACEUTICALS, INC., priority 2012, published 2014):
# Legend:
# Format in all cases: biochemical
# PI3K γ = molecular target: T1, PI3K γ (Homo sapiens, UniProt P48736); assay: In vitro IC50, PI3K γ
# T1 construct: purchased Sigma
# Excerpt: (§1) An exemplary system is PI 3-Kinase (human) HTRF™ Assay from Upstate.
# PI3K α = molecular target: T2, PI3K α (Homo sapiens, UniProt P42336); assay: In vitro IC50, PI3K α
# T2 construct: purchased Upstate
# T2 sequence (P42336 whole entry): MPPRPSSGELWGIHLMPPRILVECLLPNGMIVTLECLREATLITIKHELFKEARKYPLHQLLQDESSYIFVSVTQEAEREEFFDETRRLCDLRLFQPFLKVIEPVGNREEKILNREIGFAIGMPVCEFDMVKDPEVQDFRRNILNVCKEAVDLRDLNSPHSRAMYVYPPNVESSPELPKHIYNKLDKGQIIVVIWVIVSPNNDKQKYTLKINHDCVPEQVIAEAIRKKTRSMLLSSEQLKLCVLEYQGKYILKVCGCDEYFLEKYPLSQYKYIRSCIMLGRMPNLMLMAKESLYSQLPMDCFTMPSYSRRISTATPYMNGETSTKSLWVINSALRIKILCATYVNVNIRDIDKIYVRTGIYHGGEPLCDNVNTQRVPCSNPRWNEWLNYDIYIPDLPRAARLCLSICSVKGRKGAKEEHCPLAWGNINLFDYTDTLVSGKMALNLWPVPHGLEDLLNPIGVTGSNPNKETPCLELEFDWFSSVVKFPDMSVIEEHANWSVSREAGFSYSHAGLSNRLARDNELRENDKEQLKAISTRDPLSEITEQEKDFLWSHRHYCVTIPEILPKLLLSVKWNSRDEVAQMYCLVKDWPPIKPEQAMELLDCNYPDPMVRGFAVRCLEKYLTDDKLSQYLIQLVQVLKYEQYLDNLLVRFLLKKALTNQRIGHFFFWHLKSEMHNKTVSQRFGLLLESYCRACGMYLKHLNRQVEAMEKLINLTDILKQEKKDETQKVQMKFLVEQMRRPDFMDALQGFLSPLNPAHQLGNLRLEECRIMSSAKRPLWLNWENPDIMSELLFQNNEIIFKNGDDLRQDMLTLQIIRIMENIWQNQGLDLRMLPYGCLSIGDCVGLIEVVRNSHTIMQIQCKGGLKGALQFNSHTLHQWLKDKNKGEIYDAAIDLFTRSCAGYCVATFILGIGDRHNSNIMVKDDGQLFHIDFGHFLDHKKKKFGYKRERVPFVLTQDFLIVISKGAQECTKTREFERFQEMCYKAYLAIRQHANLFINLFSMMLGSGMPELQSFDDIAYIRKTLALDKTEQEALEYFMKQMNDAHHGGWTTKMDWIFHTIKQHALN
# T2 sequence (P27986 whole entry partner): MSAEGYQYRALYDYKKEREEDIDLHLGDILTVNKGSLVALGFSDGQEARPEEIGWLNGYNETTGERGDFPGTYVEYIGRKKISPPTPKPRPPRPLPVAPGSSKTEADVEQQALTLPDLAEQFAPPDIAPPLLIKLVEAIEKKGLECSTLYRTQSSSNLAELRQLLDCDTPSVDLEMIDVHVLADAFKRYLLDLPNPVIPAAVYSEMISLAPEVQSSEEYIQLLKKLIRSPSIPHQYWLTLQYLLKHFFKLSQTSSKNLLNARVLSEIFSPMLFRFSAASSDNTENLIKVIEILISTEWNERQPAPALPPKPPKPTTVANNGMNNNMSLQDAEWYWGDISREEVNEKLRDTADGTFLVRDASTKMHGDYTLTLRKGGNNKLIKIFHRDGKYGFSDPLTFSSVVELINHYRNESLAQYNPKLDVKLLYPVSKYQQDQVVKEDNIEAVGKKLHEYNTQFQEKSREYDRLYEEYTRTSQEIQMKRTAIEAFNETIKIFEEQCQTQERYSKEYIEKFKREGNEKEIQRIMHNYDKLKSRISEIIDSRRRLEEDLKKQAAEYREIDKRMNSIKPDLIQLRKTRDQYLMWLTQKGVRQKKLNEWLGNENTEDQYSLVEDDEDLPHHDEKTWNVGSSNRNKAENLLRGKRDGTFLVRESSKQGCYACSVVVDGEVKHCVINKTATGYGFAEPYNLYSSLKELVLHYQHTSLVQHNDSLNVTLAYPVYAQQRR
# Excerpt: as §1
# PI3K β = PI3K β (Homo sapiens, UniProt P42338); assay: In vitro IC50, PI3K β
# Chain of PI3K β (P42338 whole entry): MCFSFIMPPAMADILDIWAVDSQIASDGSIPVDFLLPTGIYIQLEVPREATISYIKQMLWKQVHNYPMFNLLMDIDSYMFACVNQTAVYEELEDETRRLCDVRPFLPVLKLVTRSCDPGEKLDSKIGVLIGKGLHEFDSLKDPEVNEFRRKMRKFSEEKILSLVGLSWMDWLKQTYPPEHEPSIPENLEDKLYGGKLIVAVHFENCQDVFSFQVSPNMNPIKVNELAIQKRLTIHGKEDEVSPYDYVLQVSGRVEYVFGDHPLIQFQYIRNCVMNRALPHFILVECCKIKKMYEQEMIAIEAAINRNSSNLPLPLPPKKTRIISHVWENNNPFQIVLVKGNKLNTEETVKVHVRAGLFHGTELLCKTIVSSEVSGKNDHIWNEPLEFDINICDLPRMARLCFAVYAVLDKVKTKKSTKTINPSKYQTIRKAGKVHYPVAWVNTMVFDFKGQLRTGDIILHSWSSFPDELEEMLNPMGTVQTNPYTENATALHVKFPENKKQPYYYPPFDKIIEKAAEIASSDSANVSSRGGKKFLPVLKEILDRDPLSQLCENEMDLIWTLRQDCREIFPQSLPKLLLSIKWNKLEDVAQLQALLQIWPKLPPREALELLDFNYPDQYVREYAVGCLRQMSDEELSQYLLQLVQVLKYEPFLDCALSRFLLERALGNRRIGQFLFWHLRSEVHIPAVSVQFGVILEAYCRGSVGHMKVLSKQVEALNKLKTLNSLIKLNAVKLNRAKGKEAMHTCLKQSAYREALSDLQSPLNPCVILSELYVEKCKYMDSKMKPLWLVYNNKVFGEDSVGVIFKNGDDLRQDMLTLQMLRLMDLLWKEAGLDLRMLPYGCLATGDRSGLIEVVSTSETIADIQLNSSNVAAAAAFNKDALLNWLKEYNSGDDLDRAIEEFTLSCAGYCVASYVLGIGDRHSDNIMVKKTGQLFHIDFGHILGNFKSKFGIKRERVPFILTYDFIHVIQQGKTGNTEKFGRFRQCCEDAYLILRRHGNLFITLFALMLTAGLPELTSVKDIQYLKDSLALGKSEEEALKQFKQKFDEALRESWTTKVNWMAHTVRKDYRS
# Excerpt: as §1
# PI3K δ = PI3K δ (Homo sapiens, UniProt O00329); assay: In vitro IC50, PI3K δ; design: purchased Upstate
# Chain of PI3K δ (O00329 whole entry): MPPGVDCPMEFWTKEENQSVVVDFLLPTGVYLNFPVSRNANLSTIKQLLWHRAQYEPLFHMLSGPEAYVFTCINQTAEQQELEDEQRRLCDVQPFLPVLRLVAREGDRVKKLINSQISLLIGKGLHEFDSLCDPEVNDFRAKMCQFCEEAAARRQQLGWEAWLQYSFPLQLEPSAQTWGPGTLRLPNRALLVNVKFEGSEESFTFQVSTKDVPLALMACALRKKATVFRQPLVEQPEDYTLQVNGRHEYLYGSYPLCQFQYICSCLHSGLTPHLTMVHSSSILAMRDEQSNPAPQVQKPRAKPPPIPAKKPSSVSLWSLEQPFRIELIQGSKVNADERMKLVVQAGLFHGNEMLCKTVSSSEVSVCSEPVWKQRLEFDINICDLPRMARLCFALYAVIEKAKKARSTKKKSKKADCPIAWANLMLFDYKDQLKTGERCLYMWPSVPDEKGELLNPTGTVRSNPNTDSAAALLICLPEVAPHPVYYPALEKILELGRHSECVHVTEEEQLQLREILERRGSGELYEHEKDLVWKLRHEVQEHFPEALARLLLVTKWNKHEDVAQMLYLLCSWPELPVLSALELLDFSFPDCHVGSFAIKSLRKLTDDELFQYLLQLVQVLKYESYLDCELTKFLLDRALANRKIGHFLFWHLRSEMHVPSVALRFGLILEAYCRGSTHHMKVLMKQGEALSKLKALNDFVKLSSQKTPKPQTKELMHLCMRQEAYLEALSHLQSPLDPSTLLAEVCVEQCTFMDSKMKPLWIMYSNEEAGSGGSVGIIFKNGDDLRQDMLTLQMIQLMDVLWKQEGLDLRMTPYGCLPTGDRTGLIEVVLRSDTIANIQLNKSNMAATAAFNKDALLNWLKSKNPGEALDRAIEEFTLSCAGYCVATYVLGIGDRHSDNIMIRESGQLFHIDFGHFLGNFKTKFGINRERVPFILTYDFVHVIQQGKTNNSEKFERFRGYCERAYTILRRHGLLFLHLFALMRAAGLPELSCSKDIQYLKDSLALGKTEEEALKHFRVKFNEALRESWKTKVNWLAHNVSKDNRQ
# Chain of PI3K δ (P27986 whole entry partner): as the sequence (P27986 whole entry partner) above
# Excerpt: as §1
# T1 sequence (P48736 whole entry): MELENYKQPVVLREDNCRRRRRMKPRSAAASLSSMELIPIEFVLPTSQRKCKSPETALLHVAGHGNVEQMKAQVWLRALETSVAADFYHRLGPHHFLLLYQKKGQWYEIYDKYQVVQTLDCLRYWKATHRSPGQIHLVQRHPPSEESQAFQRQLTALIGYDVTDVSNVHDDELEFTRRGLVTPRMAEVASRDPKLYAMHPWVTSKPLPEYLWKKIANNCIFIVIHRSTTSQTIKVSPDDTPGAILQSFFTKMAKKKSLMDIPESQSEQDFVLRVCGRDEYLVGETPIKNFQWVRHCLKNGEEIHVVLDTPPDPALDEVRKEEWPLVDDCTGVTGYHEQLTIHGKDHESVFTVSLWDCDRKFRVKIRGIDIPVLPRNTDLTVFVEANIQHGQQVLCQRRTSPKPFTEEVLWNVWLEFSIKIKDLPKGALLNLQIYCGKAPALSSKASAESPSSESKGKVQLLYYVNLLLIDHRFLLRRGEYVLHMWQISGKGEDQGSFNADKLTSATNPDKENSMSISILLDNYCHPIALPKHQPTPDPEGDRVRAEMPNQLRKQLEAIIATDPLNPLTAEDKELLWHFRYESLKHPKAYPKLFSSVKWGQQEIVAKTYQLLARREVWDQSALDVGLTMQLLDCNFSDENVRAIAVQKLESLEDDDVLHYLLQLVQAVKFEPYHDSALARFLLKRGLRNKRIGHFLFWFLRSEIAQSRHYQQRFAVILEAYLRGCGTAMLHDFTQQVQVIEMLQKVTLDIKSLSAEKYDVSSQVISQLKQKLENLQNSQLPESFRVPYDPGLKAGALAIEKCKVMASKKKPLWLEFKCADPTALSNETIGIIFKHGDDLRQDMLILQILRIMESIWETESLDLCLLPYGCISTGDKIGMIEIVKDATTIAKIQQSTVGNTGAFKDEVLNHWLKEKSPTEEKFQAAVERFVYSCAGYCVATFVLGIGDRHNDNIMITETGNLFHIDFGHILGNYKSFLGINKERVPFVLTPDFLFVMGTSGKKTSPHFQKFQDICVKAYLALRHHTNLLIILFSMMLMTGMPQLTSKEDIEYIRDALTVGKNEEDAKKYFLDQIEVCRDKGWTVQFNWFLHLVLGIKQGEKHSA
IC50 (PI3K γ) [µM],IC50 (PI3K α) [µM],IC50 (PI3K β) [µM],IC50 (PI3K δ) [µM],SMILES
< 0.1,< 10,< 0.1,< 0.1,Cc1cccc2cc([C@H](C)Nc3ncnc4[nH]nc(C(N)=O)c34)n(-c3ccccc3)c(=O)c12 [Compound 256]
< 1,< 10,< 10,< 0.1,Cc1cccc2cc(C(C)Nc3ncnc4[nH]cnc34)n(C(C)C)c(=O)c12 (stereo not drawn) [Compound 209]
< 0.1,< 10,< 10,< 0.1,Cc1ccccc1-n1c(Cn2nc(-c3ccc4nc(N)[nH]c4c3)c3c(N)ncnc32)cc2cccc(C)c2c1=O [Compound 295]
< 0.1,< 1,< 0.1,< 0.1,Cc1cccc2cc([C@H](C)Nc3ncnc4[nH]cnc34)n(-c3ccc(F)cc3)c(=O)c12 [Compound 260]
< 0.1,< 0.1,< 1,< 0.1,Cc1cccc2cc(Cn3nc(-c4ccc5oc(N)nc5c4)c4c(N)ncnc43)n(C3CC3)c(=O)c12 [Compound 201]
< 0.1,< 10,< 10,< 0.1,Cc1ccccc1-n1c(Cn2nc(-c3nn[nH]n3)c3c(N)ncnc32)cc2cccc(C)c2c1=O [Compound 207]
< 0.1,> 10,< 10,< 0.1,Cc1cccc2cc([C@H](C)Nc3ncnc4[nH]ccc34)n(-c3ccccc3)c(=O)c12 [Compound 247]
> 10,> 10,< 1,< 0.1,Cc1cccc2cc(C(C)Nc3ncnc4[nH]cnc34)n(C3CCN(C)CC3)c(=O)c12 (stereo not drawn) [Compound 227]
< 0.1,< 10,< 1,< 0.1,Cc1cccc2cc(C(C)Nc3ncnc4[nH]cnc34)n(-c3ccc(F)cc3)c(=O)c12 (stereo not drawn) [Compound 213]
< 10,> 10,> 10,< 10,CCN(Cc1cc2cccc(C)c2c(=O)n1-c1ccccc1C)c1ncnc2[nH]cnc12 [Compound 186]
< 0.1,< 10,< 10,< 0.1,Cc1cccc2cc([C@H](C)Nc3ncnc4[nH]cnc34)n(C3CCC3)c(=O)c12 [Compound 198]
> 10,> 10,> 10,< 10,Cc1ccccc1-n1c(Cn2nc(CCC(=O)N3CCOCC3)c3c(N)ncnc32)cc2cccc(C)c2c1=O [Compound 193]
< 0.1,> 10,< 10,< 0.1,Cc1cccc2cc(C(C)Nc3ncnc4[nH]cnc34)n(C3CCC3)c(=O)c12 (stereo not drawn) [Compound 215]
< 1,> 10,> 10,< 1,CC(=O)Nc1nc2cc(-c3nn(Cc4cc5cccc(C)c5c(=O)n4-c4ccccc4)c4ncnc(N)c34)ccc2s1 [Compound 275]
< 0.1,< 10,< 1,< 0.1,Cc1cccc2cc(C(C)Nc3ncnc4[nH]cnc34)n(C3CC3)c(=O)c12 (stereo not drawn) [Compound 204]
< 0.1,> 10,> 10,–,CC(=O)Nc1nc2ccc(-c3nn(Cc4cc5cccc(C)c5c(=O)n4-c4ccccc4)c4ncnc(N)c34)cc2[nH]1 [Compound 304]

# Second part, the compound before the results:
SMILES,IC50 (PI3K γ) [µM],IC50 (PI3K α) [µM],IC50 (PI3K β) [µM],IC50 (PI3K δ) [µM]
Cc1cccc2cc(Cn3nc(I)c4c(N)ncnc43)n(C)c(=O)c12 [Compound 107],< 10,> 10,> 10,< 1
Cc1cccc2cc(C(C)Nc3ncnc4[nH]cnc34)n(-c3ccccc3F)c(=O)c12 (stereo not drawn) [Compound 167],< 0.1,> 10,< 10,< 0.1
C=Cc1nn(Cc2cc3cccc(C)c3c(=O)n2-c2ccccc2C)c2ncnc(N)c12 [Compound 180],< 1,> 10,> 10,< 0.1
Cc1ccccc1-n1c(Cn2nc(-c3ccc(F)c(O)c3)c3c(N)ncnc32)cc2cccc(F)c2c1=O [Compound 56],< 0.1,> 10,> 10,< 0.1
Cc1cccc2cc(Cn3nc(C#C[C@@H](C)O)c4c(N)ncnc43)n(C3CC3)c(=O)c12 [Compound 100],< 1,> 10,< 1,< 0.1
Cc1cccc2cc(Cn3nc(-c4ccc(F)c(O)c4)c4c(N)ncnc43)n(-c3ccccc3F)c(=O)c12 [Compound 9],< 1,> 10,> 10,< 0.1
Cc1cccc2cc(Cn3nc(-c4cccc(O)c4)c4c(N)ncnc43)n(-c3ccccc3OCCN3CCOCC3)c(=O)c12 [Compound 109],< 1,> 10,> 10,< 0.1
Cc1cccc2cc(Cn3nc(I)c4c(N)ncnc43)n(C3CC3)c(=O)c12 [Compound 86],< 0.1,< 10,< 10,< 0.1
Cc1cccc2cc(Cn3nc(-c4cc(O)cc(F)c4)c4c(N)ncnc43)n(-c3ccccc3C(C)C)c(=O)c12 [Compound 95],< 0.1,< 1,< 1,< 0.1
Cc1cccc2cc(Cn3nc(-c4cccc(O)c4)c4c(N)ncnc43)n(-c3ccccc3O)c(=O)c12 [Compound 81],< 0.1,> 10,< 10,< 0.1
Cc1cccc2cc(Cn3nc(Br)c4c(N)ncnc43)n(-c3ccccc3F)c(=O)c12 [Compound 35],< 10,> 10,> 10,< 1
Cc1cccc2cc(Cn3nc(-c4cccc(O)c4)c4c(N)ncnc43)n(C3CCCC3)c(=O)c12 [Compound 58],< 1,> 10,< 10,< 0.1
Cc1ccccc1-n1c(Cn2nc(-c3ccc(O)cc3)c3c(N)ncnc32)cc2cccc(C)c2c1=O [Compound 36],< 0.1,> 10,> 10,< 1
Cc1cccnc1-n1c(Cn2nc(-c3cc(O)cc(F)c3)c3c(N)ncnc32)cc2ccccc2c1=O [Compound 93],< 1,> 10,> 10,< 0.1
Cc1ccccc1-n1c(Cn2nc(-c3ccc(Cl)c(O)c3)c3c(N)ncnc32)cc2cccc(C)c2c1=O [Compound 23],< 0.1,> 10,< 10,< 0.1
Cc1cccc2cc(Cn3nc(-c4cc(O)cc(F)c4)c4c(N)ncnc43)n(-c3ccccc3O)c(=O)c12 [Compound 90],< 0.1,< 10,< 1,< 0.1

SMILES,IC50 (PI3K γ) [µM],IC50 (PI3K α) [µM],IC50 (PI3K β) [µM],IC50 (PI3K δ) [µM]
Cc1ccccc1-n1c(Cn2nc(C#N)c3c(N)ncnc32)cc2cccc(C)c2c1=O [Compound 170],< 10,> 10,> 10,< 0.1
Cc1cccnc1-n1c(Cn2nc(C#C[C@@H](C)O)c3c(N)ncnc32)cc2cccc(C)c2c1=O [Compound 69],> 10,> 10,> 10,< 1
Cc1cccc2cc(Cn3nc(-c4ccc(O)c(Cl)c4)c4c(N)ncnc43)n(-c3ccccc3F)c(=O)c12 [Compound 26],< 0.1,> 10,> 10,< 1
COc1ccc(-c2nn(Cc3cc4cccc(C)c4c(=O)n3-c3ccccc3C)c3ncnc(N)c23)cc1OC [Compound 44],< 0.1,> 10,> 10,< 1
Cc1cccc2cc(Cn3nc(C#C[C@@H](C)O)c4c(N)ncnc43)n(C3CCCC3)c(=O)c12 [Compound 65],< 10,> 10,< 10,< 0.1
Cc1ccccc1-n1c(CN(C)c2ncnc3[nH]cnc23)cc2cccc(C)c2c1=O [Compound 184],< 10,> 10,> 10,–
Cc1ccccc1-n1c(Cn2nc(-c3cnn(CCO)c3)c3c(N)ncnc32)cc2cccc(C)c2c1=O [Compound 163],< 1,> 10,> 10,–
Cc1ccccc1-n1c(Cn2nc(-c3cccc(O)c3)c3c(N)ncnc32)cc2cccc(C)c2c1=O [Compound 13],< 0.1,> 10,< 10,–
CC(=O)Nc1nc2ccc(-c3nn(Cc4cc5cccc(C)c5c(=O)n4C4CCC4)c4ncnc(N)c34)cc2s1 [Compound 159],–,< 0.1,< 1,< 0.1
CC(=O)Nc1nc2ccc(-c3nn(Cc4cc5cccc(C)c5c(=O)n4-c4ccccc4C)c4ncnc(N)c34)cc2s1 [Compound 53],< 0.1,< 1,< 10,–
Cc1cccc2cc(Cn3nc(-c4cc(O)cc(F)c4)c4c(N)ncnc43)n(C3CCC3)c(=O)c12 [Compound 115],–,< 10,< 10,< 0.1
CC(=O)Nc1nc2ccc(-c3nn(Cc4cc5cccc(C)c5c(=O)n4C(C)C)c4ncnc(N)c34)cc2s1 [Compound 154],–,< 0.1,< 10,< 0.1
Cc1cccc2cc(Cn3nc(-c4cccc(O)c4)c4c(N)ncnc43)n(C3CCC3)c(=O)c12 [Compound 114],–,> 10,< 10,< 0.1
CC(=O)Nc1nc2ccc(-c3nn(Cc4cc5cccc(F)c5c(=O)n4C(C)C)c4ncnc(N)c34)cc2s1 [Compound 158],–,< 0.1,< 10,< 0.1
Cc1cccc2cc(Cn3nc(C#C[C@@H](C)O)c4c(N)ncnc43)n(C3CCCCC3)c(=O)c12 [Compound 112],–,> 10,> 10,< 0.1
Cc1cccc2cc(Cn3nc(-c4cc(O)cc(F)c4)c4c(N)ncnc43)n(C3CCCCC3)c(=O)c12 [Compound 110],–,> 10,< 10,< 0.1
